These are literature values, as cited in US7208484B2, “Method of synthesizing 1alpha-hydroxy-2-methylene-19-nor-homopregnacalciferol” (Wisconsin Alumni Research Foundation, priority 2002, dated 2007).

One data set addresses T1, vitamin D receptors (Homo sapiens, UniProt P11473).
T1 sequence (P11473 1-427): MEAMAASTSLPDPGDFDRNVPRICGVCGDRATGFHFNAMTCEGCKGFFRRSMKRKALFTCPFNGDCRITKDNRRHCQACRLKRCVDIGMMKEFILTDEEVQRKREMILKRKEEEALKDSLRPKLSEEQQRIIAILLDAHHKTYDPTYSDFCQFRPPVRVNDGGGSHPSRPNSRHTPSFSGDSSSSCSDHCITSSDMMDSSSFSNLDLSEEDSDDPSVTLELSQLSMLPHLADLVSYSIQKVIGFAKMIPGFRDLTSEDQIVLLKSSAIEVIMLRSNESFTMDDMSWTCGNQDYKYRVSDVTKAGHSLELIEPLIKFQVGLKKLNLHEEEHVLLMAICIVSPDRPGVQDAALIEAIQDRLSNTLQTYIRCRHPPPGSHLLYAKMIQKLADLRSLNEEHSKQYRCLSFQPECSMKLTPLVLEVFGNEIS
As to conditions: compared with 1α,25-dihydroxyvitamin D3.

The conditions of data set [1]: in vivo.

Regarding `C=C1C(=CC=C2CCCC3(C)C2CCC3C(C)C)CC(O)CC1O` (stereo not drawn) [1α-hydroxy-20-methyl-pregnacalciferol], the “binding to the receptor” value at vitamin D receptors was “comparable binding to the receptor as 1α,25-dihydroxyvitamin D3”. Also, the “HL-60 cell differentiation ability” value in the data set with HL-60 cell was “some HL-60 cell differentiation ability”. Moreover, the calcemic activity entry in data set [1] is “essentially devoid of calcemic activity”.
